Test results as given in PubChem BioAssay AID2060485 (Molecular Pharmacology Branch, DTP, NCI, 2025).

Tested on: A375 multi-cell spheroids with HUVEC/MSC, viability
Test: Anticancer human tumor A375 cell line growth inhibition [GQUAD];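 note: spheroids exposed to compounds for seven days before readout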
Details: for IC50: curve of first compound; for viability, T/C: stronger effect = lower value; active = viability on the fitted dose curve at most 10% of control; inactive = the rest
Method in brief: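 Tumor cells were grown as complex spheroids with HUVEC endothelial cells and mesenchymal stem cells as stroma. G-quadruplex stabilizers were combined with targeted agents over half-log dilutions from near the clinical Cmax, or from 10 microM.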

[1] = second compound 0.0316 µM, first compound 0.0316 µM
[2] = second compound 0.0316 µM, first compound 0.1 µM
[3] = second compound 0.0316 µM, first compound 0.316 µM
[4] = second compound 0.0316 µM, first compound 1 µM
[5] = second compound 0.0316 µM, first compound 3.16 µM
[6] = second compound 0.0316 µM, first compound 10 µM
[7] = second compound 0.1 µM, first compound 0.0316 µM
[8] = second compound 0.1 µM, first compound 0.1 µM
[9] = second compound 0.1 µM, first compound 0.316 µM
[10] = second compound 0.1 µM, first compound 1 µM
[11] = second compound 0.1 µM, first compound 3.16 µM
[12] = second compound 0.1 µM, first compound 10 µM
[13] = second compound 0.316 µM, first compound 0.0316 µM
[14] = second compound 0.316 µM, first compound 0.1 µM
[15] = second compound 0.316 µM, first compound 0.316 µM
[16] = second compound 0.316 µM, first compound 1 µM
[17] = second compound 0.316 µM, first compound 3.16 µM
[18] = second compound 0.316 µM, first compound 10 µM
[19] = second compound 1 µM, first compound 0.0316 µM
[20] = second compound 1 µM, first compound 0.1 µM
[21] = second compound 1 µM, first compound 0.316 µM
[22] = second compound 1 µM, first compound 1 µM
[23] = second compound 1 µM, first compound 3.16 µM
[24] = second compound 1 µM, first compound 10 µM
[25] = second compound 3.16 µM, first compound 0.0316 µM
[26] = second compound 3.16 µM, first compound 0.1 µM
[27] = second compound 3.16 µM, first compound 0.316 µM
[28] = second compound 3.16 µM, first compound 1 µM
[29] = second compound 3.16 µM, first compound 3.16 µM
[30] = second compound 3.16 µM, first compound 10 µM
[31] = second compound 10 µM, first compound 0.0316 µM
[32] = second compound 10 µM, first compound 0.1 µM
[33] = second compound 10 µM, first compound 0.316 µM
[34] = second compound 10 µM, first compound 1 µM
[35] = second compound 10 µM, first compound 3.16 µM
[36] = second compound 10 µM, first compound 10 µM

C=CC(=O)N1CCN(c2nc(=O)n(-c3c(C)ccnc3C(C)C)c3nc(-c4c(O)cccc4F)c(F)cc23)C(C)C1 (stereo unspecified) + Cc1cnc(CNC(=O)c2c(=O)c3ccc(N4CCCN(C)CC4)nc3n3c2sc2ccccc23)cn1
inactive: viability, T/C [1] 94.5% | viability, T/C [2] 103% | viability, T/C [3] 109% | viability, T/C [4] 106% | viability, T/C [5] 145% | viability, T/C [6] 129% | viability, T/C [7] 86.7% | viability, T/C [8] 77.3% | viability, T/C [9] 92.9% | viability, T/C [10] 82.3% | viability, T/C [11] 95% | viability, T/C [12] 83.2% | viability, T/C [13] 51.6% | viability, T/C [14] 56.6% | viability, T/C [15] 55.4% | viability, T/C [16] 57% | viability, T/C [17] 59.2% | viability, T/C [18] 58% | viability, T/C [19] 42.4% | viability, T/C [20] 47.9% | viability, T/C [21] 48.8% | viability, T/C [22] 48.6% | viability, T/C [23] 45.1% | viability, T/C [24] 40.2% | viability, T/C [25] 34.9% | viability, T/C [26] 32.5% | viability, T/C [27] 32.7% | viability, T/C [28] 36.4% | viability, T/C [29] 37.6% | viability, T/C [30] 34.1% | viability, T/C [31] 28.8% | viability, T/C [32] 32.9% | viability, T/C [33] 33% | viability, T/C [34] 33.5% | viability, T/C [35] 31.6% | viability, T/C [36] 28.5%
< 31.6 nM: IC50 (second compound 1 µM) | IC50 (second compound 3.16 µM) | IC50 (second compound 10 µM)
> 10000 nM: IC50 (second compound 0.0316 µM) | IC50 (second compound 0.1 µM) | IC50 (second compound 0.316 µM)

CC[C@@]1(O)C(=O)OCc2c1cc1n(c2=O)Cc2cc3c(CN(C)C)c(O)ccc3nc2-1 + Cc1cnc(CNC(=O)c2c(=O)c3ccc(N4CCCN(C)CC4)nc3n3c2sc2ccccc23)cn1
< 0.999 nM: IC50 (second compound 0.316 µM) | IC50 (second compound 1 µM) | IC50 (second compound 3.16 µM) | IC50 (second compound 10 µM)
inactive: viability, T/C (second compound 0.0316 µM, first compound 0.000999 µM) 114% | viability, T/C (second compound 0.0316 µM, first compound 0.00316 µM) 103% | viability, T/C (second compound 0.0316 µM, first compound 0.00999 µM) 107% | viability, T/C [1] 44.1% | viability, T/C (second compound 0.0316 µM, first compound 0.0999 µM) 17.8% | viability, T/C [3] 11.3% | viability, T/C (second compound 0.1 µM, first compound 0.000999 µM) 76.2% | viability, T/C (second compound 0.1 µM, first compound 0.00316 µM) 64.3% | viability, T/C (second compound 0.1 µM, first compound 0.00999 µM) 64.3% | viability, T/C [7] 31.4% | viability, T/C (second compound 0.1 µM, first compound 0.0999 µM) 20.5% | viability, T/C [9] 11.8% | viability, T/C (second compound 0.316 µM, first compound 0.000999 µM) 48.6% | viability, T/C (second compound 0.316 µM, first compound 0.00316 µM) 42.5% | viability, T/C (second compound 0.316 µM, first compound 0.00999 µM) 45.3% | viability, T/C [13] 27.6% | viability, T/C (second compound 0.316 µM, first compound 0.0999 µM) 17% | viability, T/C [15] 13.9% | viability, T/C (second compound 1 µM, first compound 0.000999 µM) 39.8% | viability, T/C (second compound 1 µM, first compound 0.00316 µM) 38.9% | viability, T/C (second compound 1 µM, first compound 0.00999 µM) 29.9% | viability, T/C [19] 29.1% | viability, T/C (second compound 1 µM, first compound 0.0999 µM) 19.1% | viability, T/C [21] 13% | viability, T/C (second compound 3.16 µM, first compound 0.000999 µM) 30.5% | viability, T/C (second compound 3.16 µM, first compound 0.00316 µM) 29.8% | viability, T/C (second compound 3.16 µM, first compound 0.00999 µM) 30.3% | viability, T/C [25] 25.4% | viability, T/C (second compound 3.16 µM, first compound 0.0999 µM) 17.6% | viability, T/C [27] 14.7% | viability, T/C (second compound 10 µM, first compound 0.000999 µM) 23.6% | viability, T/C (second compound 10 µM, first compound 0.00316 µM) 30.3% | viability, T/C (second compound 10 µM, first compound 0.00999 µM) 30.8% | viability, T/C [31] 23.9% | viability, T/C (second compound 10 µM, first compound 0.0999 µM) 18.7% | viability, T/C [33] 15.6%
28.5 nM: IC50 (second compound 0.0316 µM)
16 nM: IC50 (second compound 0.1 µM)

CC(=O)O[C@H]1C(=O)[C@@]2(C)[C@H]([C@H](OC(=O)c3ccccc3)[C@]3(O)C[C@H](OC(=O)[C@H](O)[C@@H](NC(=O)c4ccccc4)c4ccccc4)C(C)=C1C3(C)C)[C@]1(OC(C)=O)CO[C@@H]1C[C@@H]2O + CN(C)c1ccc(Nc2c3ccc(NC(=O)CCN4CCCC4)cc3nc3cc(NC(=O)CCN4CCCC4)ccc23)cc1
inactive: viability, T/C [1] 86.3% | viability, T/C [2] 23.1% | viability, T/C [3] 12.3% | viability, T/C [4] 11% | viability, T/C [5] 11.4% | viability, T/C [6] 10.6% | viability, T/C [7] 86.5% | viability, T/C [8] 23% | viability, T/C [9] 12.1% | viability, T/C [10] 13.2% | viability, T/C [11] 11.7% | viability, T/C [12] 12.9% | viability, T/C [13] 88.1% | viability, T/C [14] 21.3% | viability, T/C [15] 12.2% | viability, T/C [16] 10.6% | viability, T/C [17] 12.8% | viability, T/C [18] 15% | viability, T/C [19] 87.5% | viability, T/C [20] 23% | viability, T/C [21] 10.2% | viability, T/C [22] 12.8% | viability, T/C [23] 10.4% | viability, T/C [24] 12.9% | viability, T/C [25] 95.4% | viability, T/C [26] 23.2% | viability, T/C [27] 11.7% | viability, T/C [28] 10.7% | viability, T/C [29] 11.6% | viability, T/C [30] 11.9% | viability, T/C [31] 76.8% | viability, T/C [32] 22% | viability, T/C [33] 13.3% | viability, T/C [34] 11.7% | viability, T/C [35] 10.9% | viability, T/C [36] 12.4%
61.3 nM: IC50 (second compound 0.1 µM)
55.5 nM: IC50 (second compound 10 µM)
61.2 nM: IC50 (second compound 0.0316 µM)
65.2 nM: IC50 (second compound 3.16 µM)
61 nM: IC50 (second compound 0.316 µM)
61.7 nM: IC50 (second compound 1 µM)
